US12295997B2, “Prostate neoantigens and their uses” (Janssen Biotech, Inc., priority 2020, dated 2025)

System: CD8+ and CD4+ T cells (autologous CD3+ Pan-T cells isolated from human normal PBMCs)
Experiment: Exogenous autologous normal donor restimulation assay (15-mer overlapping peptide pools on CD1c+ dendritic cells, TNFα/IFNγ flow cytometry)
Assay type: cell-based
Settings: 15-mer overlapping peptide pool; for Max. Fold Change over background CD4+ TNFαINFγ double positive DP / Max. Fold Change over background CD8+ TNFαINFγ double positive DP / Max. Frequency of CD4+ TNFαINFγ DP / Max. Frequency of CD8+ TNFαINFγ DP: Table 28, additional neoantigens, highest across normal donors; for Maximum Fold Change Over Background CD4+ cells / Maximum Fold Change Over Background CD8+ cells / Maximum Frequency of TNFα/IFNγ Double Positive CD4+ T cells / Maximum Frequency of TNFα/IFNγ Double Positive CD8+ T cells: Table 25; for Maximum Fold Change Over Background CD4+ cells: TNFα+IFNγ+ CD4+ T cells; for Maximum Fold Change Over Background CD4+ cells / Maximum Fold Change Over Background CD8+ cells: highest fold change over negative control across normal donors; for Maximum Fold Change Over Background CD8+ cells: TNFα+IFNγ+ CD8+ T cells; for Maximum Frequency of TNFα/IFNγ Double Positive CD4+ T cells / Maximum Frequency of TNFα/IFNγ Double Positive CD8+ T cells: highest frequency across normal donors
Experimental: CD1c+ Dendritic Cells (DC) isolated from human normal PBMCs were thawed using media (IMDM (Gibco) supplemented with glutamine, HEPES, 5% human serum (Sigma), and 1× Pen-Strep). DC cells were resuspended in media supplemented with IL-4 (Peprotech, 80 ng/mL) and GM-CSF (Gibco, 80 ng/mL), plated in 6 well microplates, and rested overnight at 37° C. (5% CO2). The following day, DC cells were counted and plated in a 96 well round bottom microplate at a concentration of 30,000 viable cells per well. Lyophilized peptides (15-mer overlapping peptides) were solubilized in 100% DMSO and pooled by neoantigen to between 5 mg/mL and 20 mg/mL. Neoantigen peptides pools were added to DCs for a final concentration of […] and rested for 2 hours at 37° C. (5% CO2). CEF Peptide Pool “Plus” (Cellular Technologies, Ltd.) was utilized as a positive control and DMSO at the same final concentration as the experimental peptides was utilized as a negative control. After 2 hours, DC cells were irradiated with 50 gray of ionizing radiation. Autologous CD3+ Pan-T cells isolated from human normal PBMCs were thawed using media. Following irradiation, autologous Pan-T cells were added to the irradiated DCs at 300,000 viable cells per well. Human IL-15 (Peprotech) was added to all wells at final concentration of 10 ng/mL.
Plates were incubated at 37° C. (5% CO2) for a total of 12 days. Media was refreshed every 2-3 days with IL-15 (10 ng/mL final concentration) and IL-2 (R&D systems, 10 IU/mL final concentration). On day 11 cells were re-stimulated with identical experimental peptide pools or controls, at same concentration as peptide stimulation on Day 1. Protein Inhibitor Cocktail (eBioscience) was added to every well and plate was incubated overnight at 37° C. (5% CO2).
On day 12, cells were stained for intracellular flow cytometry analysis. The cells were washed with PBS and stained with Live/Dead Fixable Aqua Dead Cell stain (Thermo-Fisher). Following the live/dead stain, cells were blocked using Biotin-Free Fc Receptor Blocker (Accurate Chemical & Scientific Corp). Extracellular cellular flow panel (1 μL/antibody per well in 50 μL) consisted of CD3 PerCP-Cy5.5 (Biolegend), CD4 BV421 (Biolegend), and CD8 APC-Cy7 (Biolegend). After extracellular staining, cells were fixed using Foxp3/fTranscription Factor Staining Buffer Set (eBioscience) and stained for intracellular proteins (1:50 dilution) using TNFα FITC (R&D Systems) and IFNγ BV785 (Biolegend). Cells were washed and resuspended in stain buffer and analyzed using a BD Celesta flow cytometer.
Flow cytometry cell staining analysis was completed using FlowJo v10. Cells were gated on live, singlet, CD3+ cells. The CD8+ and CD4+ T cells were analyzed for TNFα/IFNγ expression and the frequency of double positive TNFα/IFNγ CD8+ and the frequency of double positive TNFα/IFNγ CD4+ T cells were recorded. Responses were assessed to be positive when the frequency of double positive TNFα/IFNγ CD8+ or TNFα/IFNγ CD4+ T cells due to stimulation with an experimental peptide pool was increased greater than or equal to 3-fold over the DMSO only negative control for that donor and at least 0.01%.
(§1) Overlapping 15-mer peptides were designed to span each neoantigen incorporated into NeoGAd20 and NeoMVA to assess their ability to activate T cells using the exogenous autologous normal donor restimulation assay described in Example 1 as pools using TNFα and IFNγ production by CD8^+ and CD4^+ T cells as a readout.
as §1, with “Immunogenicity of various additional identified neoantigens was assessed. Overlapping” for “Overlapping”, “similarly to what was done in Example 11” for “incorporated into NeoGAd20 and NeoMVA”

MS4 (SYFSLTNIFNFV; listed as Homo sapiens)
Max. Fold Change over background CD4+ TNFαINFγ double positive DP: 367.35
Max. Fold Change over background CD8+ TNFαINFγ double positive DP: 24.13
Max. Frequency of CD4+ TNFαINFγ DP: 2.43
Max. Frequency of CD8+ TNFαINFγ DP: 0.76

VETLENANSFSSGIQPLLCSLIGLENPT (listed as Homo sapiens) [AS58, CREB3L1 alternative splicing]
Max. Fold Change over background CD4+ TNFαINFγ double positive DP: 6.27
Max. Fold Change over background CD8+ TNFαINFγ double positive DP: 4.54
Max. Frequency of CD4+ TNFαINFγ DP: 0.24
Max. Frequency of CD8+ TNFαINFγ DP: 0.6

LVLGVLSGHSGSRL (listed as Homo sapiens) [AS8, CACNA1D alternative splicing]
Maximum Fold Change Over Background CD4+ cells: 4.08
Maximum Fold Change Over Background CD8+ cells: 54.55
Maximum Frequency of TNFα/IFNγ Double Positive CD4+ T cells: 0.049
Maximum Frequency of TNFα/IFNγ Double Positive CD8+ T cells: 0.600

VLRFLDLKVRYLHS (listed as Homo sapiens) [AS15, LRRC45 alternative splicing]
Maximum Fold Change Over Background CD4+ cells: 9.17
Maximum Fold Change Over Background CD8+ cells: 4.36
Maximum Frequency of TNFα/IFNγ Double Positive CD4+ T cells: 0.110
Maximum Frequency of TNFα/IFNγ Double Positive CD8+ T cells: 0.061

DYWAQKEKGSSSFLRPSC (listed as Homo sapiens) [AS7, ACSM1 alternative splicing]
Maximum Fold Change Over Background CD4+ cells: 2.50
Maximum Fold Change Over Background CD8+ cells: 52.60
Maximum Frequency of TNFα/IFNγ Double Positive CD4+ T cells: 0.045
Maximum Frequency of TNFα/IFNγ Double Positive CD8+ T cells: 2.630

DGFSGSLFAVVTRRCYFLKWRTIFPQSLMWL (listed as Homo sapiens) [FUS18, OPN3->CHML gene fusion]
Max. Fold Change over background CD4+ TNFαINFγ double positive DP: 31.76
Max. Fold Change over background CD8+ TNFαINFγ double positive DP: 42.33
Max. Frequency of CD4+ TNFαINFγ DP: 0.04
Max. Frequency of CD8+ TNFαINFγ DP: 0.91

HVVGYGHLDTSGSSSSSSWP (listed as Homo sapiens) [FUS15, D2HGDH->GAL3ST2 gene fusion]
Maximum Fold Change Over Background CD4+ cells: 2.79
Maximum Fold Change Over Background CD8+ cells: 1.75
Maximum Frequency of TNFα/IFNγ Double Positive CD4+ T cells: 0.039
Maximum Frequency of TNFα/IFNγ Double Positive CD8+ T cells: 0.028

PVPTATPGVRSVTSPQGLGLFLKFI (listed as Homo sapiens) [AS9, CACNA1D alternative splicing]
Max. Fold Change over background CD4+ TNFαINFγ double positive DP: 4.18
Max. Fold Change over background CD8+ TNFαINFγ double positive DP: 3.81
Max. Frequency of CD4+ TNFαINFγ DP: 0.16
Max. Frequency of CD8+ TNFαINFγ DP: 0.12

KIQNKNCPD (listed as Homo sapiens) [AS23, ZNF614 alternative splicing]
Maximum Fold Change Over Background CD4+ cells: 5.08
Maximum Fold Change Over Background CD8+ cells: 3.24
Maximum Frequency of TNFα/IFNγ Double Positive CD4+ T cells: 0.01
Maximum Frequency of TNFα/IFNγ Double Positive CD8+ T cells: 0.07

QPDSFAALHSSLNELGE (listed as Homo sapiens) [Neoantigen M86, AR L702H]
Maximum Fold Change Over Background CD4+ cells: 6.18
Maximum Fold Change Over Background CD8+ cells: 4.22
Maximum Frequency of TNFα/IFNγ Double Positive CD4+ T cells: 0.05
Maximum Frequency of TNFα/IFNγ Double Positive CD8+ T cells: 0.08

MS11 (GSLHFHEVLK; listed as Homo sapiens)
Max. Fold Change over background CD4+ TNFαINFγ double positive DP: 3.4
Max. Fold Change over background CD8+ TNFαINFγ double positive DP: 3.81
Max. Frequency of CD4+ TNFαINFγ DP: 0.13
Max. Frequency of CD8+ TNFαINFγ DP: 0.12

LELELSEGVCFRLR (listed as Homo sapiens) [FUS10, DIP2A->DIP2A-IT1 gene fusion]
Max. Fold Change over background CD4+ TNFαINFγ double positive DP: 10.86
Max. Fold Change over background CD8+ TNFαINFγ double positive DP: 2.42
Max. Frequency of CD4+ TNFαINFγ DP: 0.04
Max. Frequency of CD8+ TNFαINFγ DP: 0.09

KVLNEIDAVVTVPPSLSTSQIPQGCCIIL (listed as Homo sapiens) [AS20, PFKFB4 alternative splicing]
Max. Fold Change over background CD4+ TNFαINFγ double positive DP: 1.36
Max. Fold Change over background CD8+ TNFαINFγ double positive DP: 3.81
Max. Frequency of CD4+ TNFαINFγ DP: 0.05
Max. Frequency of CD8+ TNFαINFγ DP: 0.12
